Assay results reported in ChEMBL document CHEMBL1143680, “Alboatisins A-C, ent-atisene diterpenoids from Isodon albopilosus” (J Nat Prod, 2007).

Key:
Assay type in all cases: functional, cell-based
A549 = assay: Cytotoxicity against human A549 cells after 72 hrs by SRB assay; settings: A549, 72 h
K562 = assay: Cytotoxicity against human K562 cells after 72 hrs by SRB assay; settings: K562, 72 h
HT-29 = assay: Cytotoxicity against human HT29 cells after 72 hrs by SRB assay; settings: HT-29, 72 h

Row | SMILES | IC50 (A549) [µM] | IC50 (K562) [µM] | IC50 (HT-29) [µM]
1 | C=C1C(=O)[C@@]23[C@H](O)C[C@@H]4[C@@](C)(CO)CCC[C@@]4(C)[C@@H]2C[C@@H]1[C@H](O)[C@H]3O [ALBOATISINS A] | 10.5 | 24.6 | 15.6
2 | C=C1C(=O)[C@@]23[C@H](O)C[C@H]4[C@@](C)(CCC[C@]4(C)C=O)[C@@H]2C[C@@H]1[C@H](O)[C@H]3O [ALBOATISINS B] | 8.3 | 13.6 | 7.9
3 | C=C1C(=O)[C@]23C[C@@H](O)[C@H]1C[C@H]2[C@]1(C)CCC[C@](C)(CO)[C@H]1C[C@H]3O [ALBOATISIN C] | 12.5 | 28 | 20.6
